Test results reported in patent US20040005537A1, “Method of identifying toxic agents using differential gene expression” (priority 2000, published 2004).

Test system: rat heart tissue
Test: GENECALLING differential gene expression analysis after dosing of serotonin modulating agents
Type: in vivo, Sprague Dawley rats
Procedure: Control animals received sterile water or canola oil. The animals were sacrificed 24 hours following the last dose. Liver tissue was dissected from the animals, and total RNA was recovered from the dissected tissue. cDNA was prepared and the resulting samples were processed through using GENECALLING™ differential expression analysis as described in U.S. Pat. No. 5,871,697 and in Shimkets et al., Nature Biotechnology 17:798-803 (1999). The contents of these patents and publications are incorporated herein by reference in their entirety.
Thousands of gene fragments were initially found to be differentially expressed in rat heart tissue in response to serotonin modulating agents in. Genes fragments whose expression levels were modulated greater than ±1.5-fold were selected for further analysis.
Column 6 of Table 1, entitled “Function”, lists the type of classification assigned for the protein, based on its function. The 210 single nucleic acid sequences identified herein, are referred to herein as CARDIOTOX 1-210.

For `CCNC(C)Cc1cccc(C(F)(F)F)c1` (stereo not shown) [fenfluramine], the “Effects on Transcription Level: Novel gene fragment, 524 bp, 86% SI to mouse F-box protein FBX6b [AF176526]” value (CARDIOTOX 1) was “+1.4 fold”, the “Effects on Transcription Level: Novel gene fragment, 306 bp, 91% SI to mouse low density lipoprotein receptor related protein 4 [AB013874]” value (CARDIOTOX 2) was −1.1 fold and the “Effects on Transcription Level: Novel gene fragment, 540 bp, 97% SI to mouse skeletal muscle alpha-actin [X03766]” value (CARDIOTOX 3) was “+1.3 fold”. For the same compound, the “Effects on Transcription Level: Novel gene fragment, 80 bp” value (CARDIOTOX 4) was −1.1 fold, the “Effects on Transcription Level: Novel gene fragment, 957 bp, 99% SI to kidney injury associated moleculer HW036 [V80591]” value (CARDIOTOX 5) was −1.4 fold and the “Effects on Transcription Level: Novel gene fragment, 282 bp, 85% SI to human KIAA1515 protein [AB040948]” value (CARDIOTOX 6) was −1.3 fold. The “Effects on Transcription Level: Novel gene fragment, 405 bp, 88% SI to human 2-oxoglutarate dehydrogenase [D10523]” value (CARDIOTOX 7) was “+1.4 fold”, the “Effects on Transcription Level: UCP2” value (CARDIOTOX 8, GenBank AB010743) was −1.3 fold and the “Effects on Transcription Level: Plasma membrane Ca2 + ATPase-isoform 1” value (CARDIOTOX 9, GenBank J03753) was −1.3 fold. The “Effects on Transcription Level: Novel gene fragment, 242 bp, 97% SI to mouse HSP86 heat-shock protein [X16857]” value (CARDIOTOX 10) was “+1.6 fold”, the “Effects on Transcription Level: Novel gene fragment, 280 bp, 65% SI to human TRF1-interacting, ankyrin-related ADP-ribose polymerase [AF082556]” value (CARDIOTOX 11) was “+1.6 fold” and the “Effects on Transcription Level: Novel gene fragment, 348 bp, 88% SI to mouse Sec61 protein complex gamma subunit [U11027]” value (CARDIOTOX 12) was “+1.6 fold”. The “Effects on Transcription Level: Novel gene fragment 553 bp, 93% SI to mouse Sid329 [AB024984]” value (CARDIOTOX 13) was “+1.5 fold”, the “Effects on Transcription Level: Kruppel-like transcription factor” value (CARDIOTOX 14, GenBank AB020759) was “+1.7 fold” and the “Effects on Transcription Level: Ribosomal protein L3” value (CARDIOTOX 15, GenBank X62166) was “+2.3 fold”. The “Effects on Transcription Level: Glucose-regulated protein (GRP) 75” value (CARDIOTOX 16, GenBank S78556) was “+1.5 fold”, the “Effects on Transcription Level: Immunoglobulin heavy chain binding protein (BiP)” value (CARDIOTOX 17, GenBank M14050) was “+2.0 fold” and the “Effects on Transcription Level: Membrane-spannining proteoglycan NG2” value (CARDIOTOX 18, GenBank X56541) was −1.5 fold. The “Effects on Transcription Level: Novel gene fragment, 1294 bp, 96% SI to mouse Sui 1 (elF) homolog [AF129888]” value (CARDIOTOX 19) was “+1.6 fold”, the “Effects on Transcription Level: Novel gene fragment, 723 bp, 85% SI to human translation initiation factor elF3 p40 subunit [U54559]” value (CARDIOTOX 20) was “+1.5 fold” and the “Effects on Transcription Level: Novel gene fragment, 1324 bp, 76% SI to human flavoprotein subunit of complex II [D30648]” value (CARDIOTOX 21) was “+1.5 fold”. The “Effects on Transcription Level: Novel gene fragment, 852 bp, 81% SI to human vacuolar proton-ATPase subunit M9.2 [Y15286]” value (CARDIOTOX 22) was “+1.6 fold”, the “Effects on Transcription Level: Novel gene fragment, 178 bp, 91% SI to mouse myosin light chain-2 isoform MLC-2a [S70785]” value (CARDIOTOX 23) was “+1.5 fold” and the “Effects on Transcription Level: Novel gene fragment, 167 bp, 90% SI to mouse Rab20 [X80332]” value (CARDIOTOX 24) was “+1.8 fold”. The “Effects on Transcription Level: Novel gene fragment, 1070 bp, 80% SI to human muscle-specific protein [AF249873]” value (CARDIOTOX 25) was “+1.7 fold”, the “Effects on Transcription Level: Novel gene fragment, 1143 bp, 82% SI to human sarcoma amplified sequence (SAS) [U01160]” value (CARDIOTOX 26) was “+1.8 fold” and the “Effects on Transcription Level: Novel gene fragment, 74 bp,75% SI to human secreted protein [X30160] (from patent database)/[X97578] (from patent database)/potential cytokine)” value (CARDIOTOX 27) was “+1.6 fold”. For the same compound, the “Effects on Transcription Level: Novel gene fragment, 408 bp, 90% SI to human CGI-07 protein [AF132941]” value (CARDIOTOX 28) was “+1.6 fold”, the “Effects on Transcription Level: Novel gene fragment, 618 bp, 95% SI to rat progression related cDNA, ZNPE-120 3′ end partial sequence [patent database X90805]” value (CARDIOTOX 29) was “+1.6 fold” and the “Effects on Transcription Level: Novel gene fragment, 717 bp” value (CARDIOTOX 30) was “+1.6 fold”. The “Effects on Transcription Level: Novel gene fragment, 546 bp” value (CARDIOTOX 31) was “+1.5 fold”, the “Effects on Transcription Level: Novel gene fragment, 920 bp, 91% SI to human HSPC061 [AF161546]” value (CARDIOTOX 32) was “+1.5 fold” and the “Effects on Transcription Level: Novel gene fragment, 203 bp, 92% SI to rabbit sarcoplasmic reticulum glycoprotein [J04480]” value (CARDIOTOX 33) was −1.7 fold. For the same compound, the “Effects on Transcription Level: Novel gene fragment, 178 bp, 68% SI to mouse IgG receptor (beta-Fc-gamma-RII)[M63159]” value (CARDIOTOX 34) was “+1.5 fold”, the “Effects on Transcription Level: Ribosomal protein L6” value (CARDIOTOX 35, GenBank X87107) was “+1.5 fold” and the “Effects on Transcription Level: CAP2 protein (adenylyl cyclase-associated protein 2)” value (CARDIOTOX 36, GenBank U31935) was “+2.0 fold”. For the same compound, the “Effects on Transcription Level: Alpha-platelet-derived growth factor receptor” value (CARDIOTOX 37, GenBank M63837) was “+1.5 fold”, the “Effects on Transcription Level: Rab GD1 alpha protein” value (CARDIOTOX 38, GenBank X74402) was −1.5 fold and the “Effects on Transcription Level: PKC-zeta-interacting protein” value (CARDIOTOX 39, GenBank Y08355) was “+1.5 fold”. The “Effects on Transcription Level: ERK or MAP kinase” value (CARDIOTOX 40, GenBank X65198) was “+1.5 fold”, the “Effects on Transcription Level: Peroxisomal multifunctional enzyme type II” value (CARDIOTOX 41, GenBank U37486) was “+1.5 fold” and the “Effects on Transcription Level: HBP23 (heme-binding protein 23 kDa)” value (CARDIOTOX 42, GenBank D30035) was “+1.6 fold”. For the same compound, the “Effects on Transcription Level: Caveolae-associated protein” value (CARDIOTOX 43, GenBank U90725) was “+1.5 fold”, the “Effects on Transcription Level: Prenylated rab acceptor 1 (PRA1)” value (CARDIOTOX 44, GenBank AF025506) was “+1.6 fold” and the “Effects on Transcription Level: Novel gene fragment, 337 bp, 88% SI to rabbit cardiac ryanodine receptor (RyR-2)[U50465]” value (CARDIOTOX 45) was −1.6 fold. For the same compound, the “Effects on Transcription Level: Novel gene fragment, 81 bp, 85% SI to human titin [X90568]” value (CARDIOTOX 46) was −1.8 fold, the “Effects on Transcription Level: Novel gene fragment, 428 bp, 86% SI to human titin [X90568]” value (CARDIOTOX 47) was −1.8 fold and the “Effects on Transcription Level: Novel gene fragment, 374 bp, 88% SI to human titin [X90568]” value (CARDIOTOX 48) was −1.8 fold. The “Effects on Transcription Level: Novel gene fragment, 428 bp, 85% SI to human titin [90568]” value (CARDIOTOX 49) was −1.9 fold, the “Effects on Transcription Level: Novel gene fragment, 1216 bp, 93% SI to mouse mircotubule-associated protein (MAP) 1B protein [AF115776]” value (CARDIOTOX 50) was −1.7 fold and the “Effects on Transcription Level: Novel gene fragment, 1115 bp, 83% SI to human KIAA0549 protein [AB011121]” value (CARDIOTOX 51) was −1.8 fold. For the same compound, the “Effects on Transcription Level: Novel gene fragment, 153 bp” value (CARDIOTOX 52) was −1.7 fold, the “Effects on Transcription Level: Novel gene fragment, 89 bp, 93% SI to human putative glialblastoma cell differentiation-related protein (GBDR1) [AF068195]” value (CARDIOTOX 53) was −1.6 fold and the “Effects on Transcription Level: Rho-associated kinase beta” value (CARDIOTOX 54, GenBank U61266) was −1.8 fold. For the same compound, the “Effects on Transcription Level: Adenylate kinase 3” value (CARDIOTOX 55, GenBank D13062) was “+1.6 fold”, the “Effects on Transcription Level: Amyloid beta-peptide binding protein” value (CARDIOTOX 56, GenBank AF049878) was “+1.6 fold” and the “Effects on Transcription Level: Mitochondrial adenine nuleotide translocator” value (CARDIOTOX 57, GenBank D12771) was “+1.6 fold”. For the same compound, the “Effects on Transcription Level: Novel gene fragment, 710 bp, 94% SI to mouse chromatin structural protein homolog Supt5 hp (Supt5 h)[U88539]” value (CARDIOTOX 58) was “+3.4 fold”, the “Effects on Transcription Level: Novel gene fragment, 186 bp, 66% SI to human N-acetylglucosaminyltransferase 1 (GlcNAc-TI)[M55621]” value (CARDIOTOX 60) was −3.0 fold and the “Effects on Transcription Level: Novel gene fragment, 238 bp, 95% SI to mouse MAP kinase-activated protein kinase 2 [X76850]” value (CARDIOTOX 61) was −2.4 fold. The “Effects on Transcription Level: Novel gene fragment, 173 bp, 70% SI to G protein-coupled receptor kinase GRK4 [X97568]” value (CARDIOTOX 62) was −6.6 fold, the “Effects on Transcription Level: Novel gene fragment, 133 bp, 77% SI to human apoptosis related protein hSARP3 [patent database: V19114]” value (CARDIOTOX 63) was −3.1 fold and the “Effects on Transcription Level: Novel gene fragment, 477 bp, 98% SI to peroxisomal phytanoyl-CoA hydroxylase (PHYH) [AF121345]” value (CARDIOTOX 64) was “+4.8 fold”. For the same compound, the “Effects on Transcription Level: Novel gene fragment, 413 bp, 95% SI to mouse dihydrolipoamide dehydrogenase (Dld) [U73445]” value (CARDIOTOX 65) was “+2.3 fold”, the “Effects on Transcription Level: Novel gene fragment, 726 bp, 76% SI to human succinate dehydrogenase flavoprotein subunit (SDH) [L21936]” value (CARDIOTOX 66) was −4.0 fold and the “Effects on Transcription Level: Novel gene fragment, 440 bp, 92% SI to mouse cytochrome c oxidase Vllc [X52940]” value (CARDIOTOX 67) was “+4.0 fold”. The “Effects on Transcription Level: Novel gene fragment, 276 bp, 80% SI to human titin [X90568]” value (CARDIOTOX 68) was −12.7 fold, the “Effects on Transcription Level: Novel gene fragment, 149 bp, 70% SI to human titin [X90568]” value (CARDIOTOX 69) was −5.6 fold and the “Effects on Transcription Level: Novel gene fragment, 467 bp, 94% SI to mouse gelsolin [J04953]” value (CARDIOTOX 70) was −3.6 fold. The “Effects on Transcription Level: Novel gene fragment, 535 bp, 90% SI to mouse slow/cardiac troponin C [M29793]” value (CARDIOTOX 71) was −3.7 fold.
